The text below walks through data of ChEMBL document CHEMBL1201862, “PubChem BioAssay data set” (2004).

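Briefly, cells in 96-well plates were exposed to five compound concentrations for 48 h, and endpoints were estimated by linear interpolation. Abbreviation: GI50, concentration required for 50% inhibition of growth.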 The source made the active and inactive calls. Cut-off read from the data, not from the text of the source: active = GI50 up to about 1.1 µM and inactive = higher. Where a SMILES comes first, the peptide text is derived from it. [ ]: non-standard residue; d: D form. The star is where a group is joined. Cbz = O=C(OCc1ccccc1)*; Aib = CC(C)(N)C(=O)O

Common to all, as to test: DTP human tumour cell line panel, 48 h
Assay [1] has as its system CAKI-1.
Assay [2] concerns HOP-62.
Assay [3] has as its system HOP-92.
Assay [4] concerns Hs-578T.
The test system of assay [5] is IGROV-1.
For assay [6], the system named is M14.
Assay [7] deals with MDA-MB-231.
Assay [8] relates to NCI-H226.
Assay [9] relates to NCI-H23.
Assay [10] relates to NCI-H522.
Assay [11] relates to OVCAR-4.
Assay [12] deals with OVCAR-5.
The test system of assay [13] is RPMI-8226.
For assay [14], the system named is SF-295.
In assay [15] the test system is SF-539.
Assay [16] deals with SK-MEL-2.
For assay [17], the system named is SK-MEL-5.
Assay [18] concerns SW-620.
For assay [19], the system named is UACC-62.
The subject of assay [20] is UO-31.

What is called GI50 is the concentration giving 50% growth inhibition. Consider `O=C(CC(=O)c1ccncc1)c1ccccc1`, for which the GI50 in assay [1] is > 100 µM (inactive); in [2] it was 71.8 µM (inactive); in [3], > 87.1 µM (inactive); in assay [4], > 100 µM (inactive); in [5], > 100 µM (inactive); in assay [6] it was 78 µM (inactive). The GI50 in [7] is > 100 µM (inactive); in [8], > 100 µM (inactive); in assay [9], 80.7 µM (inactive); in assay [10] it was 67.3 µM (inactive); in assay [11], > 100 µM (inactive); in assay [12], > 100 µM (inactive). The GI50 in [13] is 52.5 µM (inactive); in [14] it was > 83.8 µM (inactive); in assay [15], 63.5 µM (inactive); in assay [16] it was > 81.1 µM (inactive); in [17], 90.4 µM (inactive); in assay [18], 73.1 µM (inactive). Besides, the values for the GI50 in [19] and in assay [20] were 88.7 µM (inactive) and > 74.5 µM (inactive), respectively.
Take `CCC(/C=C/C1OC(=O)C=CC1C)=C\C(C)C/C=C/C(C)=C/C(C)C(=O)C(C)C(O)C(C)C/C(C)=C/C(=O)O` (stereo not given): the GI50 in assay [1] is 0.807 µM (active); in assay [2], 2.62 µM (inactive); in assay [3], 4.98e-06 µM (active); in assay [4], 1.44e-05 µM (active); in assay [5], 4.07 µM (inactive); in assay [6], 5.27e-06 µM (active). In addition, the GI50 in assay [7] is 3.4e-06 µM (active); in [8], 1.67 µM (inactive); in assay [9], 1.04 µM (active); in assay [10], 0.955 µM (active); in [11] it was 1.64 µM (inactive); in assay [12] it was 6.65 µM (inactive). For the same compound, the GI50 was 1.37 µM (inactive) in assay [13]; 0.757 µM (active) in assay [14]; 1.04 µM (active) in [15]; 4.31 µM (inactive) in [16]; 4.88e-05 µM (active) in assay [17]; 1.11 µM (active) in [18]. The figures for the GI50 in [19] and in assay [20] were 1.56 µM (inactive) and 2.35 µM (inactive), respectively.
As for `COc1ccc2c(=O)c(-c3cc(OC)c(OC)cc3OC)coc2c1`, the GI50 in assay [1] was 3.01 µM (inactive); in assay [2], 3.72 µM (inactive); in assay [3], 1.81 µM (inactive); in [4] it was 1.98 µM (inactive); in assay [5], 19.2 µM (inactive); in assay [6], 4.49 µM (inactive). Besides, the GI50 was > 100 µM (inactive) in [7]; > 43.2 µM (inactive) in assay [8]; 8.67 µM (inactive) in assay [9]; 1.28 µM (inactive) in assay [10]; > 100 µM (inactive) in assay [11]; > 100 µM (inactive) in assay [12]. Also, the GI50 in [13] was 2.35 µM (inactive); in assay [14] it was 1.66 µM (inactive); in assay [15], 3.3 µM (inactive); in assay [16], 2.27 µM (inactive); in assay [17] it was 1.55 µM (inactive); in assay [18], 2.33 µM (inactive). Moreover, the values for the GI50 in assay [19] and in assay [20] were 1.97 µM (inactive) and 34 µM (inactive), respectively.
As to `CN(CCCN(C)CCc1ccc(Cl)c(Cl)c1)CCCN1CCCC1`, the GI50 is 2.37 µM (inactive) in assay [1]; 2.86 µM (inactive) in [2]; 2.13 µM (inactive) in assay [3]; 1.48 µM (inactive) in assay [4]; 3.11 µM (inactive) in assay [5]; 1.52 µM (inactive) in assay [6]. The GI50 was 1.33 µM (inactive) in assay [7]; 2.56 µM (inactive) in assay [8]; 3.31 µM (inactive) in assay [9]; 1.56 µM (inactive) in assay [10]; 7.28 µM (inactive) in assay [11]; 3.3 µM (inactive) in [12]. The GI50 in [13] was 0.228 µM (active); in [14] it was 2.28 µM (inactive); in assay [15], 2.88 µM (inactive); in assay [16], 1.83 µM (inactive); in assay [17], 2.32 µM (inactive); in assay [18], 2.26 µM (inactive). In addition, the GI50 in assay [19] is 1.93 µM (inactive); in assay [20], 1.23 µM (inactive).
Turning to `NC(CSS(=O)(=O)c1ccccc1)C(=O)O` (stereo not given), the GI50 in [1], in [2], in assay [3], in assay [4], in assay [5] and in assay [6] was > 10 µM (inactive) each time. Besides, the GI50 in [7], in assay [8], in assay [9], in assay [10], in assay [11] and in assay [12] was > 10 µM (inactive) throughout. Further, the GI50 in assay [13], in assay [14], in assay [15], in assay [16], in assay [17] and in assay [18] was > 10 µM (inactive) each time. Further, the GI50 in assay [19] and in assay [20] was > 10 µM (inactive) in each case.
Regarding `CCOC(=O)/C1=C(\C)N(Cc2ccccc2)C(=O)c2ccccc2C(=O)c2c(O)ccc(O)c21`, the GI50 in assay [1] was > 100 µM (inactive); in [2], > 100 µM (inactive); in assay [3] it was 48.4 µM (inactive); in assay [4], > 100 µM (inactive); in assay [5], 34.7 µM (inactive); in [6], > 100 µM (inactive). The GI50 is > 100 µM (inactive) in assay [7]; > 100 µM (inactive) in assay [8]; > 100 µM (inactive) in assay [9]; 24.1 µM (inactive) in assay [10]; > 100 µM (inactive) in assay [11]; > 100 µM (inactive) in [12]. Besides, the GI50 was 66.7 µM (inactive) in [13]; > 100 µM (inactive) in [14]; > 100 µM (inactive) in [15]; > 100 µM (inactive) in assay [16]; > 100 µM (inactive) in assay [17]; > 100 µM (inactive) in [18]. In addition, the GI50 in assay [19] and in [20] was > 100 µM (inactive) throughout.
`COc1cccc(Nc2nc(NNC(=O)Cc3ccccc3)nc(NNC(=O)c3ccncc3)n2)c1`: the GI50 in assay [1] was > 10 µM (inactive); in [2], > 10 µM (inactive); in [3] it was > 10 µM (inactive); in assay [4], > 10 µM (inactive); in [5] it was > 10 µM (inactive); in [6], 79.4 µM (inactive). Besides, the GI50 in assay [7] was 8.55 µM (inactive); in [8] it was > 100 µM (inactive); in assay [9] it was > 10 µM (inactive); in assay [10] it was > 100 µM (inactive); in assay [11], > 10 µM (inactive); in assay [12] it was > 100 µM (inactive). Moreover, the GI50 in assay [13] is > 10 µM (inactive); in assay [14], > 100 µM (inactive); in assay [15], > 10 µM (inactive); in assay [16], > 100 µM (inactive); in [17] it was > 10 µM (inactive); in [18], 78.2 µM (inactive). In addition, the GI50 in assay [19] is 4.71 µM (inactive); in assay [20], 6.32 µM (inactive).
In the case of `CN(C)/C=N/Cc1ccc2c(c1)OCO2`, the GI50 in assay [1], in assay [2], in assay [3], in assay [4], in [5] and in [6] was > 100 µM (inactive) throughout. Also, the GI50 in assay [7], in [8], in [9], in assay [10], in assay [11] and in [12] was > 100 µM (inactive) each time. The GI50 in assay [13], in assay [14], in [15], in assay [16], in [17] and in assay [18] was > 100 µM (inactive) in each case. Also, the GI50 in assay [19] and in assay [20] was > 100 µM (inactive) each time.
With `C(/C=N/N=C1NCCN1)=N\N=C1NCCN1`, the GI50 in assay [1], in assay [2], in assay [3], in [4], in [5] and in assay [6] was > 100 µM (inactive) each time. The GI50 in assay [7] is > 100 µM (inactive); in [8], > 100 µM (inactive); in [9], > 100 µM (inactive); in assay [10], 72.3 µM (inactive); in [11], > 100 µM (inactive); in [12] it was > 100 µM (inactive). Also, the GI50 in assay [13], in assay [14], in [15], in [16], in assay [17] and in [18] was > 100 µM (inactive) throughout. Also, the GI50 in assay [19] and in [20] was > 100 µM (inactive) in each case.
Take `CC(C)(NC(=O)C(C)(C)NC(=O)OCc1ccccc1)C(=O)O` (Cbz-[Aib]-[Aib]-OH): the GI50 in [1], in assay [2], in assay [3], in [4], in assay [5] and in [6] was > 100 µM (inactive) each time. Moreover, the GI50 in [7], in assay [8], in assay [9], in assay [10], in assay [11] and in assay [12] was > 100 µM (inactive) in each case. Besides, the GI50 in [13], in assay [14], in assay [15], in assay [16], in [17] and in assay [18] was > 100 µM (inactive) in each case. In addition, the GI50 in [19] and in assay [20] was > 100 µM (inactive) in each case.
